Patent publication US6759207B2, “Fluorogenic or fluorescent reporter molecules and their applications for whole-cell fluorescence screening assays for caspases and other enzymes and the use thereof” (Cytovia, Inc., priority 1997, dated 2004)
Peptide text beside a SMILES is read from it. * marks the point of attachment. NH(Rh110(N'-COOEt)) = CCOC(=O)Nc1ccc2c(c1)Oc1cc(N*)ccc1C21OC(=O)c2ccccc21

Legend:
[1] = tested on: HL-60 cell lysates (aminopeptidases); assay: Cleavage of aminopeptidase substrate by HL-60 cell lysates (microtiter plate assay); assay type: biochemical; conditions: FIG. 6
Experimental: Aminopeptidases are present in many cells and sequentially remove unblocked amino acid residues from peptides, starting from the N-terminus. Peptides with blocked amino termini are not cleaved. HL-60 lysates were prepared by homogenizing HL-60 cells in caspase buffer, and the ability of these lysates to cleave N-Z-G-N′-octyloxycarbonyl R110 and N-G-N′-octyloxycarbonyl-R110 was tested in a microtiter plate assay.

[2] = tested on: HL-60 cells; assay: Uptake and cleavage of aminopeptidase substrate by HL-60 cells; assay type: cell-based; conditions: 10 μM substrate, 3 hours at 37° C.; for fluorescence of cells under microscope: FIGS. 7A-B; for Counts/μg protein: excitation 485 nm, emission 525 nm
Experimental: HL-60 cells were placed in 5 ml of Iscove's medium (without serum or phenol-red) containing 10 μM N-G-N′-octyloxycarbonyl-R110 or 10 μM N-Z-G-N-octyloxycarbonyl-R110. Three million HL-60 cells were incubated for 3 hours at 37° C. in a CO2 incubator, recovered by centrifugation, and washed in 50 μL of ice-cold medium. The cells were re-centrifuged and the final pellet was resuspended in 50 μL of fresh medium. Aliquots of each cell suspension were placed in a microtiter 96-well plate and read on a Wallac 1420 microplate reader with excitation wavelength at 485 nm, emission wavelength at 525 nm. Aliquots of each cell suspension were also placed on microslides and viewed on a Nikon inverted microscope with epifluorescent illumination. […] There was no signal from the cells incubated with 10 μM N-Z-G-N′-octyloxycarbonyl-R110.

[3] = biological target: T1, recombinant human caspase-3 (Homo sapiens, UniProt P42574); assay: Cleavage of caspase-8 substrate by recombinant human caspase-3; assay type: biochemical; conditions: 10 μM substrate, 37° C.
T1 sequence (P42574 29-175 limits assumed): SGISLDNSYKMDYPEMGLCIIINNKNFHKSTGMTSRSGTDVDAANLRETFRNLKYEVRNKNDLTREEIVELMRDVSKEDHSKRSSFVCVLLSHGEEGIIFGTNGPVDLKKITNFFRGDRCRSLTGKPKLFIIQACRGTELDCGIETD
T1 sequence (P42574 176-277 limits assumed): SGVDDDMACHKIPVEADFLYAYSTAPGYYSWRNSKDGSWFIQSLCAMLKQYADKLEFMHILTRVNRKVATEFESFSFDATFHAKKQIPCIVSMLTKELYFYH
Experimental: (§1) N-Ac-LEVD-N-ethoxycarbonyl R110 SEQ ID NO:9 was assayed by recombinant human caspase-3, 6, 7, and 8. The assays were carried out at 37° C. in 96-well plates in a 100 μL incubation containing recombinant human caspase, 10 μM of N-Ac-LEVD-N′-ethoxycarbonyl R110 SEQ ID NO:9, and caspase assay buffer (40 mM PIPES, pH 7.2; 100 mM NaCl; 10% sucrose; 0.1% CHAPS; 1 mM EDTA; 10 mM DTT). At the end of the incubation period, the fluorescence was determined on a Bio-Tek FL500 fluorescence microplate reader using excitation and emission wavelengths of 485 and 530 nm, respectively. In order to correct for the endogenous fluorescence of the uncleaved substrate, controls were run which consisted of samples containing 10 μM N-Ac-LEVD-N′-ethoxycarbonyl R110 SEQ ID NO:9 without enzyme (“enzyme blanks”). Additional controls included samples containing the caspase inhibitor Ac-DEVD-CHO SEQ ID NO:5. […] Caspase-3 cleaved N-Ac-LEVD-N′-ethoxycarbonyl R110 SEQ ID NO:9 less efficiently, yielding a signal that was about 5-fold above the enzyme blank value.

[4] = biological target: T2, recombinant human caspase-6 (Homo sapiens, UniProt P55212); assay: Cleavage of caspase-8 substrate by recombinant human caspase-6; assay type: biochemical; conditions: 10 μM substrate, 37° C.
T2 sequence (P55212 24-179 limits assumed): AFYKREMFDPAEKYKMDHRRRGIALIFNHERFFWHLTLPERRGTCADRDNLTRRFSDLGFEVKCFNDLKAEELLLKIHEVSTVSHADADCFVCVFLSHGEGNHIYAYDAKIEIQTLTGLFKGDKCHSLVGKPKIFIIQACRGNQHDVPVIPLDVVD
T2 sequence (P55212 194-293 limits assumed): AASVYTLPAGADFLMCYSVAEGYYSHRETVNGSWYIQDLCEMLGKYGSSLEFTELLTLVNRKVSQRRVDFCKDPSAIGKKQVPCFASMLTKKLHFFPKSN
Experimental: as §1

[5] = biological target: T3, recombinant human caspase-7 (Homo sapiens, UniProt P55210); assay: Cleavage of caspase-8 substrate by recombinant human caspase-7; assay type: biochemical; conditions: 10 μM substrate, 37° C.
T3 sequence (P55210 24-198 limits assumed): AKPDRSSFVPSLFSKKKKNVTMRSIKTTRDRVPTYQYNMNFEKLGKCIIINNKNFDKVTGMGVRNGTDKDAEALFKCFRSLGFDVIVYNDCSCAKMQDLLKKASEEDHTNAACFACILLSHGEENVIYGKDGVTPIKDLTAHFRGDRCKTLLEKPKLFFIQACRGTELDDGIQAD
T3 sequence (P55210 207-303 limits assumed): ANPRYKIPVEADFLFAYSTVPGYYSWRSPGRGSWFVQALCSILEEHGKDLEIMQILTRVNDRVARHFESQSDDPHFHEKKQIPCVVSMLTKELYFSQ
Experimental: as §1

[6] = biological target: recombinant human caspase-8 (Homo sapiens, UniProt Q14790); assay: Cleavage of caspase-8 substrate by recombinant human caspase-8; assay type: biochemical; conditions: 10 μM substrate, 37° C.
Chain of recombinant human caspase-8 (Q14790 217-374 limits assumed): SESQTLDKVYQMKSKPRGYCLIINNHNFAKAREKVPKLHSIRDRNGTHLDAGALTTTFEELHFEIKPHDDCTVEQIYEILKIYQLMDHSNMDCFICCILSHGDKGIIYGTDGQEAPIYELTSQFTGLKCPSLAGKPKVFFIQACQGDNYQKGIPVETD
Chain of recombinant human caspase-8 (Q14790 385-479 limits assumed): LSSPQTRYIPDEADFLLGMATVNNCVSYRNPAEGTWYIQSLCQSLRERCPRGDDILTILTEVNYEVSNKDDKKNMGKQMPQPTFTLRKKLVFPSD
Experimental: as §1

SMILES	cleavage by HL-60 cell lysates [1]	signal from cells (microplate reader) [2]	fluorescence of cells under microscope [2]	Counts/μg protein [2] [Counts/μg protein]	signal above the enzyme blank value [3]	signal to background ratio [4]	fluorescent signal [5]	signal to background ratio [6]
CCCCCCCCOC(=O)Nc1ccc2c(c1)Oc1cc(NC(=O)CNC(=O)OCc3ccccc3)ccc1C21OC(=O)c2ccccc21 (stereo not drawn) [N-Z-G-N′-octyloxycarbonyl-R110, N-[Z-Gly]-N′-octyloxycarbonyl-Rhodamine-110]	no signal was generated	no signal	no fluorescence signal was observed	0				
CCOC(=O)Nc1ccc2c(c1)Oc1cc(NC(=O)[C@H](CC(=O)O)NC(=O)[C@@H](NC(=O)[C@H](CCC(=O)O)NC(=O)[C@H](CC(C)C)NC(C)=O)C(C)C)ccc1C21OC(=O)c2ccccc21 (stereo partly drawn) [N-Ac-LEVD-N′-ethoxycarbonyl R110, N-(Ac-Leu-Glu-Val-Asp)-N′-ethoxycarbonyl-Rhodamine 110] (Ac-LEVD-{NH(Rh110(N'-COOEt))})					about 5 fold	about 13	virtually no signal	about 26
Br.CCCCCCCCOC(=O)Nc1ccc2c(c1)Oc1cc(NC(=O)CN)ccc1C21OC(=O)c2ccccc21 (stereo not drawn) [N-G-N′-octyloxycarbonyl-R110, N-Gly-N′-octyloxycarbonyl-Rhodamine-110 HBr]	readily cleaved	showed signal	showed fluorescence under microscope	12.98				
